Molecular target: Coagulation factor XI (Homo sapiens, UniProt P03951)
Assay: In Vitro Inhibitory Effect of the Compounds of the Present Invention on the Enzymatic Activity of Blood-Coagulation Factor XIa: The following method was used to test the in vitro inhibitory effect of the compounds of the present invention on the activity of human blood-coagulation factor XIa, expressed by the Inhibition constant Ki.Solution preparation: reaction buffer: 0.03M HEPES acid, 0.145M NaCl, 0.005 M KCl, 0.1% PEG-8000, pH=7.5;HEPES 8.499 g, NaCl 8.47 g, KCl 0.3725, PEG 8000 1 g, plus ddH2O 800 ml; the pH was adjusted to 7.4 with HCl, and the volume was metered to 1 L.S2366 substrate stock solution (2 mM): a volume of substrate ([…]) was dissolved in 23 ml sterile deionized water, aliquoted, and stored at 4° C. in darkness.S2366 substrate working solution: the stock solution was diluted by 4 folds with the reaction buffer before use.FXIa working solution: 1 μl FXIa stock solution was added to 10 ml reaction buffer and thoroughly mixed before use.Method: 15 μl test sample working solution (15 μl DMSO for the control group) and 75 μl FXIa working solution were added to a 96-well plate, and incubated at room temperature for 15 min. Then 60 μl S2366 substrate working solution was added to initiate the reaction. […]

Sequence of Coagulation factor XI (P03951 19-387 limits assumed): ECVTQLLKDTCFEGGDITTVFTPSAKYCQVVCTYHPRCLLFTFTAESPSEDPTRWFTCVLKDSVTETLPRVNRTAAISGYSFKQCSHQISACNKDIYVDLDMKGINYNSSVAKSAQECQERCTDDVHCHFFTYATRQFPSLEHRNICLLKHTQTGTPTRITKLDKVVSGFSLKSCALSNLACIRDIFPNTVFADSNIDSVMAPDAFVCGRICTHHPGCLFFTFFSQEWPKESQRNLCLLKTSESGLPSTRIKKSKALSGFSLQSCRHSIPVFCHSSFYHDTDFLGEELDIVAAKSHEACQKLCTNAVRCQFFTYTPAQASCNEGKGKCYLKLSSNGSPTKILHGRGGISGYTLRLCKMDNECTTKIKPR
Sequence of Coagulation factor XI (P03951 388-625 limits assumed): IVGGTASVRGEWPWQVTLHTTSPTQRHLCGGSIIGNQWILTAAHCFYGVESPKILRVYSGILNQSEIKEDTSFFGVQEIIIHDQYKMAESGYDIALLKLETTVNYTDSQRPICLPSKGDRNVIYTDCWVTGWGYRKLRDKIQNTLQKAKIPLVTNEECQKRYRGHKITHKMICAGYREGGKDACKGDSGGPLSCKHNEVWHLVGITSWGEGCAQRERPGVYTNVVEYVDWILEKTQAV

- Ki: 344 nM
Structure (SMILES): COC(=O)Nc1ccc(NC(=O)C2CCc3cc(-c4cc(Cl)ccc4-n4cnnn4)cc(=O)n32)cc1 (stereo unspecified)

From ChEMBL document CHEMBL5726156, “Pyridone or pyrimidone derivative, preparation method therefor and application thereof” (2019)
